PubChem BioAssay (NCI)
Where “and” joins values, the source holds several entries; their conditions need not be identical. Identical values can stand only once.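 How tested: cells in 96-well plates exposed to compound for 48 hours at five concentrations. GI50: concentration for 50% inhibition of growth. TGI marks complete inhibition of growth.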

Columns and labels:
Test in all cases: NCI tumour cell line growth inhibition, 48 h
BT-549 breast = tested on: BT-549 breast
HOP-92 NSCLC = tested on: HOP-92 NSCLC
MALME-3M melanoma = tested on: MALME-3M melanoma
MDA-MB-435 = tested on: MDA-MB-435
PC-3 prostate = tested on: PC-3 prostate
SR leukemia = tested on: SR leukemia
TK-10 renal = tested on: TK-10 renal
U251 CNS = tested on: U251 CNS
UACC-62 melanoma = tested on: UACC-62 melanoma
UO-31 renal = tested on: UO-31 renal

SMILES	GI50 (BT-549 breast)	TGI (BT-549 breast)	GI50 (HOP-92 NSCLC)	TGI (HOP-92 NSCLC)	GI50 (MALME-3M melanoma)	TGI (MALME-3M melanoma)	GI50 (MDA-MB-435)	TGI (MDA-MB-435)	GI50 (PC-3 prostate)	TGI (PC-3 prostate)	GI50 (SR leukemia)	TGI (SR leukemia)	GI50 (TK-10 renal)	TGI (TK-10 renal)	GI50 (U251 CNS)	TGI (U251 CNS)	GI50 (UACC-62 melanoma)	TGI (UACC-62 melanoma)	GI50 (UO-31 renal)	TGI (UO-31 renal)
Oc1c(CN2CCCC2)cc(CSCc2ccccc2)c2cccnc12	2.27 µM	12.1 µM	4.52 µM	17.6 µM	2.04 µM	9.06 µM	1.4 µM	13.6 µM	1.55 µM	14 µM	0.392 µM	2.32 µM	0.775 µM	13.1 µM	0.789 µM	11.9 µM	0.363 µM	2.29 µM	0.103 µM	1.38 µM
COc1cc2c(c(OC)c1OC)-c1ccc(O)c(=O)cc1[C@@H](NC(C)=O)CC2	24 µM	> 100 µM and 39.4 µM	9.92 µM	> 100 µM and 58.3 µM	19.2 µM	97.7 µM	14.3 µM	> 100 µM and 47.4 µM	15.1 µM	> 100 µM	4.74 µM	97.9 µM and 18.1 µM		> 100 µM	5.93 µM	> 100 µM and 35.4 µM	3.82 µM	18.1 µM and 30 µM	4.42 µM	63.8 µM and 89 µM
Clc1ccc2ns[s+]c2c1		> 100 µM		> 100 µM		> 100 µM		> 100 µM		> 100 µM		> 31.6 µM		> 61.1 µM		> 100 µM		> 100 µM		> 66.8 µM
CC(C(=O)O)c1ccc(-c2ccccc2)c(F)c1 (centres undefined)		> 100 µM	47.6 µM	> 100 µM		> 100 µM		> 100 µM		> 100 µM		> 100 µM		> 100 µM		> 100 µM		> 100 µM		> 100 µM
CCC[CH2][Sn]1([CH2]CCC)[O]C(=O)c2ccc(N)cc2[O]1	0.15 µM	0.985 µM	0.149 µM	0.988 µM	0.144 µM	1.18 µM	1.58 µM	3.08 µM	0.985 µM	2.23 µM	0.549 µM		0.528 µM	1.69 µM	0.471 µM	1.81 µM	0.364 µM	1.83 µM	0.465 µM	1.82 µM
COC(=O)[C@H]1[C@H]2C[C@@H]3c4[nH]c5cc(OC)ccc5c4CCN3C[C@H]2C[C@@H](OC(=O)/C=C/c2cc(OC)c(OC)c(OC)c2)[C@@H]1OC	11.6 µM	24.6 µM	2.85 µM	17.4 µM	18.7 µM	50.6 µM	3.22 µM	19.4 µM	6.91 µM	> 100 µM	2.48 µM	6.63 µM	3.35 µM	11.3 µM	3.58 µM	14.6 µM	14.5 µM	33.4 µM	9.63 µM	33.5 µM
[N-]=[N+]=CC(=O)COC(=O)c1ccccc1		> 100 µM		> 100 µM		> 100 µM		> 100 µM		> 100 µM		> 100 µM		> 100 µM		> 100 µM		> 100 µM		> 100 µM
C/C=C(/C)c1cnc(CC(C)C)c(=O)[nH]1		> 100 µM		> 100 µM				> 100 µM		> 100 µM		> 100 µM		> 100 µM		> 100 µM		> 100 µM		> 100 µM
CCN(CC)CCOc1c(OC)c(Br)cc2c(C)c(C(=O)OC)oc12	1.61 µM	5.62 µM					1.03 µM	2.62 µM	0.368 µM	1.03 µM	0.542 µM	1.31 µM	1.12 µM	2.99 µM	0.28 µM	0.97 µM	1.33 µM	4.92 µM	3.19 µM	50 µM
COc1cc2c3c(c1OC)C1(C=CC(=O)C=C1)CC3NCC2 (centres undefined)		> 100 µM		> 100 µM		> 100 µM		> 100 µM		> 100 µM		> 100 µM		> 100 µM		> 100 µM		> 100 µM		
CC(=O)c1cccc(-c2cccc(-c3ccn(CCN4CCOCC4)n3)c2)c1	> 20 µM	> 20 µM	16.2 µM	> 20 µM			> 20 µM	> 20 µM	> 20 µM	> 20 µM	> 20 µM	> 20 µM	> 20 µM	> 20 µM	> 20 µM	> 20 µM	> 20 µM	> 20 µM	> 20 µM	> 20 µM
C[C@]12CC[C@H]3[C@@H](CC[C@]4(O)C[C@@H](O)CC[C@]34CO)[C@@]1(O)CC[C@@H]2C1=CC(=O)OC1		3.68 µM		18.9 µM		6.47 µM		9.45 µM		10.5 µM		> 100 µM		4.91 µM				11.4 µM		
CNCCNc1nc2ccccc2c2c(=O)c3cc(OC)ccc3sc12	1.59 µM	3.11 µM	1.29 µM	3.32 µM	1.82 µM	3.31 µM	1.72 µM	3.13 µM	1.47 µM	2.94 µM	1.74 µM	4.23 µM			1.5 µM	2.92 µM	1.69 µM	3.13 µM	1.29 µM	2.6 µM
CCCCCCNC(=O)n1cc(F)c(=O)[nH]c1=O	2.56 µM	24.9 µM	14.8 µM	50 µM			1.21 µM	24.2 µM	10.1 µM	27.3 µM	1.44 µM	21.3 µM	4.71 µM	22.7 µM	4.27 µM	17.5 µM	2.8 µM	25 µM		
Cc1nn(CNc2ccccc2C(F)(F)F)c(=S)n1/N=C/c1ccc(F)cc1	> 100 µM	> 100 µM	34.8 µM	> 100 µM	> 100 µM	> 100 µM	> 100 µM	> 100 µM	97.9 µM	> 100 µM	12.3 µM	51.6 µM	53.8 µM	> 100 µM			35.4 µM	> 100 µM	> 100 µM	> 100 µM
COc1ccc([C@@H](O)c2cc(-c3ncnc4cc(N5CCOCC5)ccc34)c(F)cc2Cl)nn1	1.44 µM	20.3 µM	0.382 µM	> 100 µM	6.4 µM	55.8 µM	4.18 µM	37.4 µM	0.865 µM	30.9 µM	7.06 µM	34.6 µM	1.95 µM	17.7 µM	6.22 µM	53.8 µM			0.646 µM	23 µM
